This is an account of results in patent US20260217701A1, “SELECTIVE BET INHIBITORS AND USES THEREOF” (Tay Therapeutics Limited, priority 2022, published 2026).

Where only a bound is given, the exact number is not on record here.

The test has as its target T1, BRD4 BD2 (Homo sapiens, UniProt O60885).
T1 construct: HEK293 cells were transfected using NanoLuc-BRD4-BD1 or NanoLuc-BRD4-BD2 fusion vectors
Briefly: NanoBRET bromodomain assay, NanoLuc-BRD4-BD2 in HEK293 cells. The class given is binding. As to conditions: nanoBRET assay, given as symbol only; for Selectivity (BD1/BD2): higher number denotes higher selectivity; for BD2: lower number denotes higher potency. The procedure: Plates were then incubated at 37° C.+5% CO2 incubator for 2 hours.
Fold Selectivity Calculated (IC50 BD1/IC50 BD2).

Take `Cn1cc(-c2ccccc2)c(-c2cn(C)c(=O)c3[nH]c(-c4cnn(C(F)(F)F)c4)c(F)c23)cc1=O` [Compound D, 3-fluoro-6-methyl-4-(1-methyl-2-oxo-5-phenyl-1,2-dihydropyridin-4-yl)-2-(1-(trifluoromethyl)-1H-pyrazol-4-yl)-1,6-dihydro-7H-pyrrolo[2,3-c]pyridin-7-one]: the “Selectivity (BD1/BD2)” value is reported as “>>>>” and the BD2 entry is “<”.

For the compound `CSCCn1cc(-c2ccccc2)c(-c2cn(C)c(=O)c3[nH]c(-c4cnn(C(F)(F)F)c4)cc23)cc1=O` [Compound C, 6-methyl-4-(1-(2-(methylthio)ethyl)-2-oxo-5-phenyl-1,2-dihydropyridin-4-yl)-2-(1-(trifluoromethyl)-1H-pyrazol-4-yl)-1,6-dihydro-7H-pyrrolo[2,3-c]pyridin-7-one], the “Selectivity (BD1/BD2)” value is on record as “>>>>” and the BD2 entry is “<”.
